Reference: patent publication US7811760B2, “Vector and method for detecting the change in transcription amount” (priority 2006, dated 2010)

Key:
SD-line rat AhR = biological target: T1, SD-line rat AhR (Rattus norvegicus, UniProt P41738, Q794H); test: Reporter gene assay in Neuro2a with pTHE100×3/Luc and pcDNA4-rAhR; type: cell-based; conditions: 1 to 10,000 pM TCDD
T1 construct: The SD-line rat AhR gene-coding region was amplified from the reverse-transcribed sample by means of PCR; V5-His (C-terminal tag of vector pcDNA4/V5-His B); expressed in transfected cells; host or cells: mouse neuroblastoma Neuro2a, transient transfection with LIPOFECTAMINE 2000
T1 sequence (P41738 10-853 Q794H): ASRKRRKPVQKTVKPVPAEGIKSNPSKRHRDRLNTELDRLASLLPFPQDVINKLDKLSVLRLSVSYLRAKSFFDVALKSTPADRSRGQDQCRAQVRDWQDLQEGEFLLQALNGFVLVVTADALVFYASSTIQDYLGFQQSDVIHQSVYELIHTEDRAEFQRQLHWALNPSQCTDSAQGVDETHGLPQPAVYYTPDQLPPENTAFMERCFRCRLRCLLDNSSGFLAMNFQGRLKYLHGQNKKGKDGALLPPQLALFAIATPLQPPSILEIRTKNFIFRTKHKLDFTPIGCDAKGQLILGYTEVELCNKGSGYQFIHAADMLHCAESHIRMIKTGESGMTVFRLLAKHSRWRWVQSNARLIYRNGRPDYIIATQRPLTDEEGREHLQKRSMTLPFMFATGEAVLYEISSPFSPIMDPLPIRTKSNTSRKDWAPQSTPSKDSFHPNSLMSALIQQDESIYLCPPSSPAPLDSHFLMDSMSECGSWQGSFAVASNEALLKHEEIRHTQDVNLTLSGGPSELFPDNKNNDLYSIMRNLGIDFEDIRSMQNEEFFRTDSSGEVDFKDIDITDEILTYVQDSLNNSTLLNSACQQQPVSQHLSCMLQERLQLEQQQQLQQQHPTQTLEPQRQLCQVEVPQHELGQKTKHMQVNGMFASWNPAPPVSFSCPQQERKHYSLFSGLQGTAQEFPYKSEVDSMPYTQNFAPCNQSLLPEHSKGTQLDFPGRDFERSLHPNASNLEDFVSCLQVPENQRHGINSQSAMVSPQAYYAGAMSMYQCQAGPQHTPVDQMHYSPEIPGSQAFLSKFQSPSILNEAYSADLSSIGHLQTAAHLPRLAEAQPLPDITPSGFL
Source text: In Example 8, the vector pTHE100×3/Luc (Example 7, FIG. 7A) was used as the vector containing a reporter gene, and Neuro2a was used as the cell.
In this Example, a combination of pcDNA4-rAhR (Example 1) containing the SD-line rat AhR gene and pcDNA4/V5-His/lacZ (Invitrogen), as well as a combination of PGV-mAhR (Example 1) containing the C57/BL6-line mouse AhR gene and pcDNA4/V5-His/lacZ were used as the vectors for introducing into the cell together with pTHE100×3/Luc. pcDNA4-rAhR was introduced into the cell for constitutive expression of the SD-line rat AhR (SEQ ID No: 10); PGV-mAhR was introduced into the cell for constitutive expression of C57/BL6-line mouse AhR (SEQ ID No: 11); and pcDNA4/V5-His/lacZ was introduced into the cell for normalization of the transfection efficiency of the vector.
The vectors were introduced into the cell by using LIPOFECTAMINE 2000, similarly to the method described in Example 3. After the above vectors were introduced into the cell, the obtained cell was exposed to 1 to 10,000 pM of TCDD to examine the increase in expression amount of the reporter gene in response to TCDD.

[1] = biological target: T2, aryl hydrocarbon receptor (Rattus norvegicus, UniProt P41738, Q794H); test: Reporter gene assay in Neuro2a with vectors having TH transcriptional regulatory regions different in length; type: cell-based, SD-line rat; conditions: 10 nM TCDD
T2 construct: The SD-line rat AhR gene-coding region was amplified from the reverse-transcribed sample by means of PCR; V5-His (C-terminal tag of vector pcDNA4/V5-His B); expressed in transfected cells; host or cells: mouse neuroblastoma Neuro2a, transient transfection with LIPOFECTAMINE 2000
T2 sequence (P41738 10-853 Q794H): T1 sequence (P41738 10-853 Q794H)
Experimental: Shorter fragments of TH transcriptional regulatory region (i.e., 2.0 kbp, 1.5 kbp, 1.0 kbp and 500 bp of fragments) were prepared by PCR using the 2.5 kbp of the TH transcriptional regulatory region incorporated into PGV-THp25 as a template. The following different forward primers were used for each fragment: 2.0-kbp fragment:
As the reverse primer, a common primer (5′-[…]-3′ (SEQ ID No: 17)) was used. Recognition sequence for a restriction enzyme KpnI was added to the terminal of each forward primer, and recognition sequence for a restriction enzyme NheI was added to the terminal of the reverse primer, in order to facilitate incorporation of the PCR amplification fragments into the vector. Pyrobest DNA polymerase (Takara Bio Inc.) was used in the PCR. The amplified TH transcriptional regulatory region fragments were digested with restriction enzymes KpnI and NheI, and subjected to electrophoresis on agarose. The corresponding bands were purified with a QIAQUICK Gel Extraction Kit (manufactured by Qiagen) and incorporated into PGV-B2 vector (TOYO B-NET) previously digested with KpnI and NheI.
These vectors were introduced into Neuro2a by a method similar to Example 3. The obtained cell was exposed to 10 nM TCDD, and the change in the expression amount of the reporter gene was examined in the cell (FIG. 3).
For narrowing down the region involved in transcriptional regulation by the test substance, shorter fragments of the transcriptional regulatory region (i.e., 400 bp, 300 bp, 200 bp and 100 bp of fragments) were prepared by PCR using the 500 bp of the TH transcriptional regulatory region as a template. The following forward primers were used for each fragment.
As the reverse primer, a common primer (5′-[…]-3′ (SEQ ID No: 17)) was used. Recognition sequence for a restriction enzyme KpnI was added to the terminal of each forward primer, and recognition sequence for a restriction enzyme NheI was added to the terminal of the reverse primer. The DNA fragments were amplified by using Pyrobest DNA polymerase (Takara Bio Inc.). […]

Q: Which results are given for `Clc1cc2c(cc1Cl)Oc1cc(Cl)c(Cl)cc1O2` [TCDD, 2,3,7,8-tetrachlorodibenzo-p-dioxine]?
A: transcriptional response, rat AhR compared with mouse AhR (SD-line rat AhR): transcriptional response greater than that of the C57/BL6-line mouse AhR; induction of transcription of the reporter gene in response to TCDD (SD-line rat AhR; SD-line rat AhR): effective in inducing transcription of the reporter gene; change in the expression amount of the reporter gene (response) ([1]; all vectors with TH transcriptional regulatory regions of 2.5 kbp to 500 bp): there was a response to TCDD; change in the expression amount of the reporter gene (response) ([1]; vectors with TH transcriptional regulatory region of 500 bp, 400 bp or 300 bp): there was a response to TCDD; change in the expression amount of the reporter gene (response) ([1]; vectors with region of 200 bp or 100 bp): no response to TCDD
